Legend:
Format in all cases: in vivo
[1] = test system: pigweed (Amaranthus retroflexus); assay: Test A pre-/postemergence greenhouse herbicide test, visual injury rating 0-100
In short: (§1)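 Postemergence treatment targeted seedlings 2 to 10 cm high with one to two leaves, while preemergence treatment was a directed spray onto freshly planted loam/sand soil. Injury was scored visually about 10 days later.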

[2] = test system: large (Lg) crabgrass (Digitaria sanguinalis); assay: as above
In short: as §1

[3] = test system: barnyardgrass (Echinochloa crus-galli); assay: as above
In short: as §1

[4] = test system: wheat (Triticum aestivum); assay: as above
In short: as §1

[5] = test system: velvetleaf (Abutilon theophrasti); assay: as above
In short: as §1

[6] = test system: morningglory (Ipomoea spp.); assay: as above
In short: as §1

[7] = test system: giant foxtail (Setaria faberii); assay: as above
In short: as §1

corn (Zea mays) = assay: as above
In short: as §1

[8] = test system: large (Lg) crabgrass (Digitaria sanguinalis); assay: Test C pre-/postemergence greenhouse test, plant response rating 0-100
In short: (§2)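 Plants were treated either at seeding (soil of loam and sand) or as 2–18 cm seedlings in a sphagnum peat mix, using test chemicals in a surfactant-containing non-phytotoxic solvent. Visual assessment relative to controls followed 13–15 days later.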

[9] = test system: ragweed (common ragweed, Ambrosia elatior); assay: as above
In short: as §2

[10] = test system: yellow nutsedge (Cyperus esculentus); assay: as above
In short: as §2

[11] = test system: Italian ryegrass (Lolium multiflorum); assay: as above
In short: as §2

[12] = test system: galium (catchweed bedstraw, Galium aparine); assay: as above
In short: as §2

[13] = Postemergence, 250 g ai/ha, scale 0 to 100
[14] = Postemergence, 500 g ai/ha, scale 0 to 100

O=Cn1cc(C(=O)c2ccccc2)c(-c2cc(Cl)cc(Cl)c2)n1 [Compound 28]
15: Plant response rating, Crabgrass, Large ([8]; Preemergence, 250 g ai/ha) | Plant response rating, Crabgrass, Large ([8]; Preemergence, 500 g ai/ha)
80: Plant response rating (0 to 100 scale), Pigweed ([1]; Postemergence, 125 g ai/ha) | Pigweed plant response rating (0 = no effect, 100 = complete control) ([1]; Preemergence, 125 g ai/ha) | Plant response rating (0 to 100 scale), Velvetleaf ([5]; Postemergence, 125 g ai/ha) | Plant response rating, Galium ([12]; Preemergence, 125 g ai/ha) | Plant response rating, Galium ([12]; Preemergence, 250 g ai/ha) | Plant response rating, Galium ([12]; Preemergence, 500 g ai/ha)
20: Velvetleaf plant response rating (0 = no effect, 100 = complete control) ([5]; Preemergence, 125 g ai/ha) | Plant response rating, Galium ([12]; Preemergence, 62 g ai/ha)
90: Plant response rating (0 to 100 scale), Pigweed ([1]; Postemergence, 500 g ai/ha) | Plant response rating (0 to 100 scale), Pigweed ([1]; Preemergence, 500 g ai/ha) | Plant response rating (0 to 100 scale), Velvetleaf ([5]; Postemergence, 500 g ai/ha) | Plant response rating, Ragweed ([9]; Preemergence, 250 g ai/ha)
35: Plant response rating, Galium [12, 13]
85: Plant response rating, Ragweed [9, 14]
5: Plant response rating, Nutsedge, Yellow [10, 13] | Plant response rating (0 to 100), Galium ([12]; Postemergence, 62 g ai/ha)
40: Plant response rating (0 to 100), Galium ([12]; Postemergence, 125 g ai/ha)
45: Plant response rating (0 to 100), Ragweed ([9]; Postemergence, 125 g ai/ha)
0: Plant response rating (0 to 100 scale), Crabgrass, Large ([2]; Postemergence, 125 g ai/ha) | Plant response rating (0 to 100 scale), Crabgrass, Large ([2]; Postemergence, 500 g ai/ha) | Crabgrass, Large plant response rating (0 = no effect, 100 = complete control) ([2]; Preemergence, 125 g ai/ha) | Plant response rating (0 to 100 scale), Crabgrass, Large ([2]; Preemergence, 500 g ai/ha) | Plant response rating (0 to 100 scale), Barnyardgrass ([3]; Postemergence, 125 g ai/ha) | Plant response rating (0 to 100 scale), Barnyardgrass ([3]; Postemergence, 500 g ai/ha) | Barnyardgrass plant response rating (0 = no effect, 100 = complete control) ([3]; Preemergence, 125 g ai/ha) | Plant response rating (0 to 100 scale), Barnyardgrass ([3]; Preemergence, 500 g ai/ha) | Plant response rating (0 to 100 scale), Wheat ([4]; Postemergence, 125 g ai/ha) | Plant response rating (0 to 100 scale), Wheat ([4]; Postemergence, 500 g ai/ha) | Wheat plant response rating (0 = no effect, 100 = complete control) ([4]; Preemergence, 125 g ai/ha) | Plant response rating (0 to 100 scale), Wheat ([4]; Preemergence, 500 g ai/ha) | Plant response rating (0 to 100 scale), Morningglory ([6]; Postemergence, 125 g ai/ha) | Plant response rating (0 to 100 scale), Morningglory ([6]; Postemergence, 500 g ai/ha) | Morningglory plant response rating (0 = no effect, 100 = complete control) ([6]; Preemergence, 125 g ai/ha) | Plant response rating (0 to 100 scale), Morningglory ([6]; Preemergence, 500 g ai/ha) | Plant response rating (0 to 100 scale), Foxtail, Giant ([7]; Postemergence, 125 g ai/ha) | Plant response rating (0 to 100 scale), Foxtail, Giant ([7]; Postemergence, 500 g ai/ha) | Foxtail, Giant plant response rating (0 = no effect, 100 = complete control) ([7]; Preemergence, 125 g ai/ha) | Plant response rating (0 to 100 scale), Foxtail, Giant ([7]; Preemergence, 500 g ai/ha) | Plant response rating (0 to 100 scale), Corn (corn (Zea mays); Postemergence, 125 g ai/ha) | Plant response rating (0 to 100 scale), Corn (corn (Zea mays); Postemergence, 500 g ai/ha) | Corn plant response rating (0 = no effect, 100 = complete control) (corn (Zea mays); Preemergence, 125 g ai/ha) | Plant response rating (0 to 100 scale), Corn (corn (Zea mays); Preemergence, 500 g ai/ha) | Plant response rating (0 to 100), Crabgrass, Large ([8]; Postemergence, 62 g ai/ha) | Plant response rating (0 to 100), Crabgrass, Large ([8]; Postemergence, 125 g ai/ha) | Plant response rating, Crabgrass, Large [8, 13] | Plant response rating, Crabgrass, Large [8, 14] | Plant response rating, Crabgrass, Large ([8]; Preemergence, 62 g ai/ha) | Plant response rating, Crabgrass, Large ([8]; Preemergence, 125 g ai/ha) | Plant response rating (0 to 100), Nutsedge, Yellow ([10]; Postemergence, 62 g ai/ha) | Plant response rating (0 to 100), Nutsedge, Yellow ([10]; Postemergence, 125 g ai/ha) | Plant response rating, Nutsedge, Yellow [10, 14] | Plant response rating, Nutsedge, Yellow ([10]; Preemergence, 62 g ai/ha) | Plant response rating, Nutsedge, Yellow ([10]; Preemergence, 125 g ai/ha) | Plant response rating, Nutsedge, Yellow ([10]; Preemergence, 250 g ai/ha) | Plant response rating, Nutsedge, Yellow ([10]; Preemergence, 500 g ai/ha) | Plant response rating (0 to 100), Ryegrass, Italian ([11]; Postemergence, 62 g ai/ha) | Plant response rating (0 to 100), Ryegrass, Italian ([11]; Postemergence, 125 g ai/ha) | Plant response rating, Ryegrass, Italian [11, 13] | Plant response rating, Ryegrass, Italian [11, 14] | Plant response rating, Ryegrass, Italian ([11]; Preemergence, 62 g ai/ha) | Plant response rating, Ryegrass, Italian ([11]; Preemergence, 125 g ai/ha) | Plant response rating, Ryegrass, Italian ([11]; Preemergence, 250 g ai/ha) | Plant response rating, Ryegrass, Italian ([11]; Preemergence, 500 g ai/ha)
98: Plant response rating, Ragweed ([9]; Preemergence, 500 g ai/ha)
65: Plant response rating, Ragweed ([9]; Preemergence, 62 g ai/ha)
70: Plant response rating, Ragweed [9, 13]
60: Plant response rating (0 to 100 scale), Velvetleaf ([5]; Preemergence, 500 g ai/ha) | Plant response rating (0 to 100), Ragweed ([9]; Postemergence, 62 g ai/ha)
30: Plant response rating, Galium [12, 14]
75: Plant response rating, Ragweed ([9]; Preemergence, 125 g ai/ha)
